Laboratory results as given in PMC11842588, “A first-in-class selective inhibitor of ERK1/2 and ERK5 overcomes drug resistance with a single-molecule strategy” (Signal Transduction and Targeted Therapy, 2025).

Key:
[1] = system: Ki-67; test: IHC of Ki-67 in xenograft tumor tissue; assay type: in vivo, nude mice (BALB/c-nu); conditions: 50 mg/kg
Protocol: All procedures were performed in accordance with the Laboratory Animals Welfare Act, the Guide for the Care and Use of Laboratory Animals and the Guidelines and Policies. The rodent experiment was approved by IACUC (Institutional Animal Care and Use Committee) in the Experimental Animal Ethics Committee of West China Hospital (Approval No. 2021672A). 48 female nude mice (BALB/c-nu, 5 weeks, 15–18 g, purchased from Beijing HFK Bio-Technology Co., LTD) were acclimatized for one week in an SPF-grade animal facility (ventilated, 20–25 °C, 50–60% humidity). […] When the tumor volume reached approximately 100 mm^3 (V = L × W^2/2), the mice were randomly divided into six groups (n = 8 per group): (1) Control group (normal saline); (2) 25 mg/kg SKLB-D18-treated group; (3) 50 mg/kg SKLB-D18-treated group; (4) 50 mg/kg BVD-523-treated group; (5) 50 mg/kg XMD8-92-treated group; (6) BVD-523 (50 mg/kg) and XMD8-92 (50 mg/kg) combined treatment group. Drugs were freshly prepared with 5% DMSO, 10% Solutol HS-15, and 85% normal saline on the day of administration. […] And the body weight and tumor volume of mice were measured every three days. […]
Briefly, tumor tissues were dehydrated, embedded, and sectioned. […] Microscopic analysis and imaging were performed, analyzed with ImageJ, and statistical graphs were created using GraphPad Prism 9.5. […]

[2] = H&E staining of major organs; assay type: in vivo; conditions: xenograft study, heart, liver, spleen, lung, kidney
Protocol: All procedures were performed in accordance with the Laboratory Animals Welfare Act, the Guide for the Care and Use of Laboratory Animals and the Guidelines and Policies. The rodent experiment was approved by IACUC (Institutional Animal Care and Use Committee) in the Experimental Animal Ethics Committee of West China Hospital (Approval No. 2021672A). 48 female nude mice (BALB/c-nu, 5 weeks, 15–18 g, purchased from Beijing HFK Bio-Technology Co., LTD) were acclimatized for one week in an SPF-grade animal facility (ventilated, 20–25 °C, 50–60% humidity). […] When the tumor volume reached approximately 100 mm^3 (V = L × W^2/2), the mice were randomly divided into six groups (n = 8 per group): (1) Control group (normal saline); (2) 25 mg/kg SKLB-D18-treated group; (3) 50 mg/kg SKLB-D18-treated group; (4) 50 mg/kg BVD-523-treated group; (5) 50 mg/kg XMD8-92-treated group; (6) BVD-523 (50 mg/kg) and XMD8-92 (50 mg/kg) combined treatment group. Drugs were freshly prepared with 5% DMSO, 10% Solutol HS-15, and 85% normal saline on the day of administration. Intragastric administration occurred once daily at the same time for 16 consecutive days. And the body weight and tumor volume of mice were measured every three days. […]
First, the fixed major organs of nude mice were dehydrated, embedded, and sectioned. […] Staining results and tissue morphology were analyzed under a microscope.

[3] = biological target: T1, ErbB4(h) (Homo sapiens, UniProt Q15303); test: Kinase profiling; assay type: biochemical
T1 construct: purchased Eurofins Cerep SA (KinaseProfiler)
Protocol: (§1) 380 kinases inhibitory activities of SKLB-D18 were conducted by Eurofins Cerep SA. The result was illustrated by kinase tree (http://www.kinhub.org/kinmap/).

[4] = biological target: T2, PKCβI(h) (Homo sapiens, UniProt P05771); test: Kinase profiling; assay type: biochemical
T2 construct: purchased Eurofins Cerep SA (KinaseProfiler)
Protocol: as §1

[5] = biological target: T3, PKBα(h) (Homo sapiens, UniProt P31749); test: Kinase profiling; assay type: biochemical
T3 construct: purchased Eurofins Cerep SA (KinaseProfiler)
Protocol: as §1

[6] = biological target: T4, IKKβ(h) (Homo sapiens, UniProt O14920); test: Kinase profiling; assay type: biochemical
T4 construct: purchased Eurofins Cerep SA (KinaseProfiler)
Protocol: as §1

[7] = biological target: T5, PAK3(h) (Homo sapiens, UniProt O75914); test: Kinase profiling; assay type: biochemical
T5 construct: purchased Eurofins Cerep SA (KinaseProfiler)
Protocol: as §1

[8] = biological target: T6, ALK1(h) (Homo sapiens, UniProt P37023); test: Kinase profiling; assay type: biochemical
T6 construct: purchased Eurofins Cerep SA (KinaseProfiler)
Protocol: as §1

[9] = biological target: T7, LATS2(h) (Homo sapiens, UniProt Q9NRM7); test: Kinase profiling; assay type: biochemical
T7 construct: purchased Eurofins Cerep SA (KinaseProfiler)
Protocol: as §1

[10] = biological target: T8, EphA5(h) (Homo sapiens, UniProt P54756); test: Kinase profiling; assay type: biochemical
T8 construct: purchased Eurofins Cerep SA (KinaseProfiler)
Protocol: as §1

[11] = biological target: T9, Lyn(h) (Homo sapiens, UniProt P07948); test: Kinase profiling; assay type: biochemical
T9 construct: purchased Eurofins Cerep SA (KinaseProfiler)
Protocol: as §1

[12] = biological target: T10, PKD2(h) (Homo sapiens, UniProt Q9BZL6); test: Kinase profiling; assay type: biochemical
T10 construct: purchased Eurofins Cerep SA (KinaseProfiler)
Protocol: as §1

[13] = biological target: T11, PKCζ(h) (Homo sapiens, UniProt Q05513); test: Kinase profiling; assay type: biochemical
T11 construct: purchased Eurofins Cerep SA (KinaseProfiler)
Protocol: as §1

[14] = biological target: T12, Ron(h) (Homo sapiens, UniProt Q04912); test: Kinase profiling; assay type: biochemical
T12 construct: purchased Eurofins Cerep SA (KinaseProfiler)
Protocol: as §1

[15] = biological target: T13, PI3 Kinase (p110b/p85a)(h) (Homo sapiens, UniProt P42338); test: Kinase profiling; assay type: biochemical
T13 construct: purchased Eurofins Cerep SA (KinaseProfiler)
Protocol: as §1

[16] = biological target: T14, EphB3(h) (Homo sapiens, UniProt P54753); test: Kinase profiling; assay type: biochemical
T14 construct: purchased Eurofins Cerep SA (KinaseProfiler)
Protocol: as §1

[17] = biological target: T15, BMPR2(h) (Homo sapiens, UniProt Q13873); test: Kinase profiling; assay type: biochemical
T15 construct: purchased Eurofins Cerep SA (KinaseProfiler)
Protocol: as §1

[18] = biological target: T16, EphA8(h) (Homo sapiens, UniProt P29322); test: Kinase profiling; assay type: biochemical
T16 construct: purchased Eurofins Cerep SA (KinaseProfiler)
Protocol: as §1

[19] = biological target: T17, Rsk3(h) (Homo sapiens, UniProt Q15349); test: Kinase profiling; assay type: biochemical
T17 construct: purchased Eurofins Cerep SA (KinaseProfiler)
Protocol: as §1

[20] = biological target: T18, PKG1β(h) (Homo sapiens, UniProt Q13976); test: Kinase profiling; assay type: biochemical
T18 construct: purchased Eurofins Cerep SA (KinaseProfiler)
Protocol: as §1

[21] = biological target: T19, NEK5(h) (Homo sapiens, UniProt Q6P3R8); test: Kinase profiling; assay type: biochemical
T19 construct: purchased Eurofins Cerep SA (KinaseProfiler)
Protocol: as §1

[22] = biological target: T20, NIM1(h) (Homo sapiens, UniProt Q8IY84); test: Kinase profiling; assay type: biochemical
T20 construct: purchased Eurofins Cerep SA (KinaseProfiler)
Protocol: as §1

[23] = biological target: T21, CaMKI(h) (Homo sapiens, UniProt Q14012); test: Kinase profiling; assay type: biochemical
T21 construct: purchased Eurofins Cerep SA (KinaseProfiler)
Protocol: as §1

[24] = biological target: T22, PRAK(h) (Homo sapiens, UniProt Q8IW41); test: Kinase profiling; assay type: biochemical
T22 construct: purchased Eurofins Cerep SA (KinaseProfiler)
Protocol: as §1

[25] = biological target: T23, AMPKα1(h) (Homo sapiens, UniProt Q13131); test: Kinase profiling; assay type: biochemical
T23 construct: purchased Eurofins Cerep SA (KinaseProfiler)
Protocol: as §1

[26] = biological target: T24, CDKL4(h) (Homo sapiens, UniProt Q5MAI5); test: Kinase profiling; assay type: biochemical
T24 construct: purchased Eurofins Cerep SA (KinaseProfiler)
Protocol: as §1

T9 sequence (P07948 whole entry): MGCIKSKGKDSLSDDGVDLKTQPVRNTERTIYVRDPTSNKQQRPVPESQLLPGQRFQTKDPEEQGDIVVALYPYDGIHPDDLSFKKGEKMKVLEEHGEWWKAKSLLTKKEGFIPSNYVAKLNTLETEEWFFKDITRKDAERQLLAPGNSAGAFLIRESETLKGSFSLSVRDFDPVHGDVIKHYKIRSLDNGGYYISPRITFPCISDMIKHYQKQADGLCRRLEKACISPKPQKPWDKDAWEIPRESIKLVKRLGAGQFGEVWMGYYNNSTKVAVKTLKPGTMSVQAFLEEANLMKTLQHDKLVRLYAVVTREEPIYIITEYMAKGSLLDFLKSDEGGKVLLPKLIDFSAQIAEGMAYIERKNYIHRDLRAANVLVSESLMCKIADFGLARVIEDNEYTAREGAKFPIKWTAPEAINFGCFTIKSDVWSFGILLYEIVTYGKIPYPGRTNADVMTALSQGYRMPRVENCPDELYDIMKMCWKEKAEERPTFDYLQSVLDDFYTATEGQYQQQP
T3 sequence (P31749 whole entry): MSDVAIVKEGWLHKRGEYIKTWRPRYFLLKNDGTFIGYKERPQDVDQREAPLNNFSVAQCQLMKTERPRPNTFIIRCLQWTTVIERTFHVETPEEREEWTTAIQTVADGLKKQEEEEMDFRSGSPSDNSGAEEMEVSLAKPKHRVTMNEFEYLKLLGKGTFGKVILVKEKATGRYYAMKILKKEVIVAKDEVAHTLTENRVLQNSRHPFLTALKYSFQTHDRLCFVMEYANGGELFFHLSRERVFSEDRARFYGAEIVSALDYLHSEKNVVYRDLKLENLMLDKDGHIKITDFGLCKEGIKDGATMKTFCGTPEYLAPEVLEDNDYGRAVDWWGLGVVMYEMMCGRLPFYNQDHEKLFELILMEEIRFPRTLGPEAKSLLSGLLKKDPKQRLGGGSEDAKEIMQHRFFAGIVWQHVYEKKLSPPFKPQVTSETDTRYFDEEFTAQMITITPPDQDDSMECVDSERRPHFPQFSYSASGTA
T4 sequence (O14920 whole entry): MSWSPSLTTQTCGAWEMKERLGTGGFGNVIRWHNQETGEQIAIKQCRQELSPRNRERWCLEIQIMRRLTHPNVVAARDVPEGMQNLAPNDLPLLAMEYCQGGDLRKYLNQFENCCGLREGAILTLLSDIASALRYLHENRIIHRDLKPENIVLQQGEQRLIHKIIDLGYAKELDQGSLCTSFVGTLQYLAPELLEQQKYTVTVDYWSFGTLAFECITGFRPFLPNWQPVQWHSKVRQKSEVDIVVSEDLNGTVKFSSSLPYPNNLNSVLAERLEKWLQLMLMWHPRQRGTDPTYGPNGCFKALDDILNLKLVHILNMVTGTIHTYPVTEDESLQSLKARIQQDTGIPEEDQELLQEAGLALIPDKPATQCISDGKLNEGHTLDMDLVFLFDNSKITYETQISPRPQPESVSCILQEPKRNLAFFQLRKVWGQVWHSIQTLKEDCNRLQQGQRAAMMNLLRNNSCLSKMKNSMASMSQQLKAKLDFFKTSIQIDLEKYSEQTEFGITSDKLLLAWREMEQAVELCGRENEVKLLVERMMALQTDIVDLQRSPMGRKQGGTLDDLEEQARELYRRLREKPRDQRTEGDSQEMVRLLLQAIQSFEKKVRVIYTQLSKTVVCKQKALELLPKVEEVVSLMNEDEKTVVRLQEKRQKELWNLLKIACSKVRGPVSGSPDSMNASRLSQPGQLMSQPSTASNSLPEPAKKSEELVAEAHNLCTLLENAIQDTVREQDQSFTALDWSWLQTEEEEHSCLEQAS
T5 sequence (O75914 whole entry): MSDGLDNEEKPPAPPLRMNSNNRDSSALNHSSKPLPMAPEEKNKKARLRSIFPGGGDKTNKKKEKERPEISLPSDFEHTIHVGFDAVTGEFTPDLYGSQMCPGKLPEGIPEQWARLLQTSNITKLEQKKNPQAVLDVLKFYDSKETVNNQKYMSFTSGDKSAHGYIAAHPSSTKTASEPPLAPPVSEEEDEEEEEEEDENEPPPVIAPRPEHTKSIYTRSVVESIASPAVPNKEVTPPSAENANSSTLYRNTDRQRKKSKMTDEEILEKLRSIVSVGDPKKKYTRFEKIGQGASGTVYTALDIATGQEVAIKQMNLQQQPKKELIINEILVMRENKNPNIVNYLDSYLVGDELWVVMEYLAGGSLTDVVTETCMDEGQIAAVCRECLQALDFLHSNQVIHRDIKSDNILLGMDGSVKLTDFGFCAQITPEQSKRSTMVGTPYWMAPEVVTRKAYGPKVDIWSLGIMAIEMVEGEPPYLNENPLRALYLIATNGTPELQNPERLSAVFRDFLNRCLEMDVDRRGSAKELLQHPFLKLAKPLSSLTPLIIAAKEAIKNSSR
T11 sequence (Q05513 whole entry): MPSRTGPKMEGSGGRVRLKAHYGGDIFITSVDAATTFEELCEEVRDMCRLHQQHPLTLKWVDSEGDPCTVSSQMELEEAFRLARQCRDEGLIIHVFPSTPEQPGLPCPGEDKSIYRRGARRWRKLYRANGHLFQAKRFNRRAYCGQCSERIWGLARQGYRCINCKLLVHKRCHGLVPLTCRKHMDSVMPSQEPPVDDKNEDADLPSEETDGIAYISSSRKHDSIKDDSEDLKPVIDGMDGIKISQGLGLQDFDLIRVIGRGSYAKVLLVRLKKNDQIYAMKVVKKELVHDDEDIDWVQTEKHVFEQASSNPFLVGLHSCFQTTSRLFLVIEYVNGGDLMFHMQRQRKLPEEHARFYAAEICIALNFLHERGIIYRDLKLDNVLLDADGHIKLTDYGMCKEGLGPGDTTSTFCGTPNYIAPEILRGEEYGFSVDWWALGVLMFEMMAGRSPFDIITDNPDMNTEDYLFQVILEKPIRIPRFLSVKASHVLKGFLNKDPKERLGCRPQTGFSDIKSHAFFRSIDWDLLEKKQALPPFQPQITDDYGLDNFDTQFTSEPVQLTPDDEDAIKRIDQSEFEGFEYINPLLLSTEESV
T13 sequence (P42338 whole entry): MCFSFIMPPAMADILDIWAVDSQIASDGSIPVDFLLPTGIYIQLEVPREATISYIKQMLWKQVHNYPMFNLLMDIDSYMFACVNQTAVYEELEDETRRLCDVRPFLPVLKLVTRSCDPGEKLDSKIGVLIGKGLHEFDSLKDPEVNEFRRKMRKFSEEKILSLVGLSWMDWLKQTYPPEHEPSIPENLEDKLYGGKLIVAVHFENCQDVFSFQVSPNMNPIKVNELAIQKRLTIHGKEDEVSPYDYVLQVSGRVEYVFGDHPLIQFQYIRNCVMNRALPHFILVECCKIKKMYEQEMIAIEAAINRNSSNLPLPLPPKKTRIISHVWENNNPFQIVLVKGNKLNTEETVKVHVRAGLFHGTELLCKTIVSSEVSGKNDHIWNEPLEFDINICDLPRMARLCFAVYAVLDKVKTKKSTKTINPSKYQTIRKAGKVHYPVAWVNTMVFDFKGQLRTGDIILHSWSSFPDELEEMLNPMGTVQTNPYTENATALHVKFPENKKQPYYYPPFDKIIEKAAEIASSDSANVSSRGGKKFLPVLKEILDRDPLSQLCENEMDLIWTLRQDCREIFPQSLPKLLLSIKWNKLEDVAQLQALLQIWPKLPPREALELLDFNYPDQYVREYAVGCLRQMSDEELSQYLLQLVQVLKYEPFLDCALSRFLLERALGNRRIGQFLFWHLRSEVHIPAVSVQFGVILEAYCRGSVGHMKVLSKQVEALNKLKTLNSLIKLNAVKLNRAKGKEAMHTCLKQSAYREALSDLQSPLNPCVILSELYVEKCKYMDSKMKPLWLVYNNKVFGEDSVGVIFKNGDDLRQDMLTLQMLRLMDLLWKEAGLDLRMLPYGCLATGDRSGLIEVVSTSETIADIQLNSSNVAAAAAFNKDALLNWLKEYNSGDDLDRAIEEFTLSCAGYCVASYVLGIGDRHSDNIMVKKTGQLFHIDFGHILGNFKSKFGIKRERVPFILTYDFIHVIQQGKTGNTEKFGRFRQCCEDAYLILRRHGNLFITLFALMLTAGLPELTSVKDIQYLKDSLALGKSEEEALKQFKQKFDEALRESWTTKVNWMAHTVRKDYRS
T13 sequence (P27986 whole entry partner): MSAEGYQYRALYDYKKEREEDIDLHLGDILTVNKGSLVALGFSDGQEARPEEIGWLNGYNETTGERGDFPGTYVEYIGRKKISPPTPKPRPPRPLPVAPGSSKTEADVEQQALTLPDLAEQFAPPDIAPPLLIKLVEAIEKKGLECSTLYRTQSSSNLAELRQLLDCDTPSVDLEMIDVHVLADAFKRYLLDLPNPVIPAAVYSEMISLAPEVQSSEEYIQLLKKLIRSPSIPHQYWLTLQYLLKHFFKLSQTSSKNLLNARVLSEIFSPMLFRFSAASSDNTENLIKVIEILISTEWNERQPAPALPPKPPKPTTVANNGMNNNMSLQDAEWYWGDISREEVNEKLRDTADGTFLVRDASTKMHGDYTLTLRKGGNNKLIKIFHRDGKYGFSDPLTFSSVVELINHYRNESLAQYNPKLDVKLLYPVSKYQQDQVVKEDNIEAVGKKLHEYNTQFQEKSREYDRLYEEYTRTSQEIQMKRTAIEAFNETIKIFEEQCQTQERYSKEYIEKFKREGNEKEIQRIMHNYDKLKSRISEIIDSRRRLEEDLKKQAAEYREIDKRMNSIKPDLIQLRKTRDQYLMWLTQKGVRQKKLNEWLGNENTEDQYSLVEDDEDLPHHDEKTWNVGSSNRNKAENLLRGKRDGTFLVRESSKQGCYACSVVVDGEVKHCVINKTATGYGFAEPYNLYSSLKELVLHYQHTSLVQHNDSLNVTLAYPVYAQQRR

SMILES: CN(C)Cc1cccc(Nc2ncc(Cl)c(-c3csc(C(=O)NN4CCOCC4)c3)n2)c1 [SKLB-D18, 4-(5-chloro-2-((3-((dimethylamino)methyl)phenyl)amino)pyrimidin-4-yl)-N-morpholinothiophene-2-carboxamide]
- Ki-67 positive area [1]: less than 20%
- toxicity to major organs (H&E staining) [2]: no significant toxicity
- inhibition at 1 µM [3]: -16%
- inhibition at 1 µM [4]: 12%
- inhibition at 1 µM [5]: 12%
- inhibition at 1 µM [6]: 53%
- inhibition at 1 µM [7]: 27%
- inhibition at 1 µM [8]: 20%
- inhibition at 1 µM [9]: 37%
- inhibition at 1 µM [10]: 3%
- inhibition at 1 µM [11]: 60%
- inhibition at 1 µM [12]: 66%
- inhibition at 1 µM [13]: -15%
- inhibition at 1 µM [14]: 58%
- inhibition at 1 µM [15]: 8%
- inhibition at 1 µM [16]: 3%
- inhibition at 1 µM [17]: 21%
- inhibition at 1 µM [18]: 14%
- inhibition at 1 µM [19]: 66%
- inhibition at 1 µM [20]: 4%
- inhibition at 1 µM [21]: 68%
- inhibition at 1 µM [22]: 50%
- inhibition at 1 µM [23]: 16%
- inhibition at 1 µM [24]: -2%
- inhibition at 1 µM [25]: 61%
- inhibition at 1 µM [26]: 66%
